IC50 data for 21 compounds are collected here from US20260028365A1 (BIOGEN MA INC., priority 2022, published 2026).

One assay has as its target JH2 domain of human Tyk2 (Homo sapiens (Human), UniProt P29597). The experiment in a line: JH2 Biochemical Assay (TR-FRET probe displacement). It is filed as binding. (In general: TR-FRET usually uses a lanthanide donor and a delayed reading to cut background.)
For another assay, the target named is Tyk2 (Homo sapiens (Human), UniProt P29597). The experiment in a line: pSTAT4 Cell Assay (MSD, NK92 cells). The format is cell-based.
Where [1] appears, read: TR-FRET probe displacement, JH2 domain of human Tyk2.
Setting [2] is: JH2 domain of human Tyk2, TR-FRET probe displacement.
The mark [3] stands for this setting: TR-FRET probe displacement, JH2 domain.

Like-named read-outs stand apart in the source and are kept apart here.

JH2 domain of human Tyk2, sequence (P29597 575-876): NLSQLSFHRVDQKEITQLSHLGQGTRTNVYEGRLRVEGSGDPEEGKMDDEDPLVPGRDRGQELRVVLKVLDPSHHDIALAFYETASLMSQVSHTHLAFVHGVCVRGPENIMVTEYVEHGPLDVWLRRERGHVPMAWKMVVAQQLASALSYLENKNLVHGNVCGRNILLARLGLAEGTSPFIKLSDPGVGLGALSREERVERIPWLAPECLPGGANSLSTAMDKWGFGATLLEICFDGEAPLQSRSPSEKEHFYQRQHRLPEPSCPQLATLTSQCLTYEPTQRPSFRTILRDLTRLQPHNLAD
Tyk2, sequence (P29597 whole entry, the tested form may be a part): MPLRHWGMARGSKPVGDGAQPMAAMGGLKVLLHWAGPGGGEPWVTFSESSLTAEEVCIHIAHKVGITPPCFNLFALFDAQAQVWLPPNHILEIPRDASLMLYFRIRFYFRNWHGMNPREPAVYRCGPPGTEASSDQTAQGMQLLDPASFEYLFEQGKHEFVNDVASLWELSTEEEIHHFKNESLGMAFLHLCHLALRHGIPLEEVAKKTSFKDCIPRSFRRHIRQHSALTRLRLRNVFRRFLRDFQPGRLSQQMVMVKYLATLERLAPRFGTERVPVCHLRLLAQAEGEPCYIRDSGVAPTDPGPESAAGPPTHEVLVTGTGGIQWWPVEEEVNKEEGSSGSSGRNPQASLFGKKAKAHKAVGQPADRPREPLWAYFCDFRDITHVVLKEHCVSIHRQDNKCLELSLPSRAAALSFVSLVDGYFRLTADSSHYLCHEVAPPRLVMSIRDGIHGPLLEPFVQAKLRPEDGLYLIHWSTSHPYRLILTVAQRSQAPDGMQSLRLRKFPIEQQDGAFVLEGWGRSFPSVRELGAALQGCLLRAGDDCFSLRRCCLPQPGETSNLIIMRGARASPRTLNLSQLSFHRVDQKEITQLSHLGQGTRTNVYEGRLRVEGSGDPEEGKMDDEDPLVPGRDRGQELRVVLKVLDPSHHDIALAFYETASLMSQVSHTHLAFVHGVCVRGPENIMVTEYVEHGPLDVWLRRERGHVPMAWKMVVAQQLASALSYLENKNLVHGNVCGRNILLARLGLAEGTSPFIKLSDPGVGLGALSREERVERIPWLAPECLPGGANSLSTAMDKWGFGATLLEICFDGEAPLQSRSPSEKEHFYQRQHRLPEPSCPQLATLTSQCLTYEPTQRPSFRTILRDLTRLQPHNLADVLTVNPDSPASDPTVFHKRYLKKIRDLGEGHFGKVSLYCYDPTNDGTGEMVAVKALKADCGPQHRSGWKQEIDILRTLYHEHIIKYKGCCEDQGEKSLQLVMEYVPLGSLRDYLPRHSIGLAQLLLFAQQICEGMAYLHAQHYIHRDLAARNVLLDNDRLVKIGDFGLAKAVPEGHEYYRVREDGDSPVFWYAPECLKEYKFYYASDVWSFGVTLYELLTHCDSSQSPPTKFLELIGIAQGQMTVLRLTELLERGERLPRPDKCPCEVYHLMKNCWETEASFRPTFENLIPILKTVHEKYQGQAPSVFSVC

As to `COC(C)(C)c1cc(-c2cnc(NC(C)=O)cc2Nc2cc(C)nc(C(C)(F)F)n2)ncn1` [Example 264, N-(4-((2-(1,1-difluoroethyl)-6-methylpyrimidin-4-yl)amino)-5-(6-(2-methoxypropan-2-yl)pyrimidin-4-yl)pyridin-2-yl)acetamide], the half-inhibitory concentration (IC50) on JH2 domain of human Tyk2 (setting [1]) and on Tyk2 (MSD) was 100 to 1000 nM in each case.
On to `CC(=O)Nc1cc(Nc2cc(C)nc(C(C)(F)F)n2)c(-c2cnc(C)o2)cn1` [Example 600, N-(4-((2-(1,1-difluoroethyl)-6-methylpyrimidin-4-yl)amino)-5-(2-methyloxazol-5-yl)pyridin-2-yl)acetamide], for which the IC50 was 10 to 100 nM on JH2 domain of human Tyk2 (setting [2]) and 100 to 1000 nM at Tyk2 (MSD).
As for `CC(=O)Nc1cc(Nc2cc(C)nc(C(C)(C)F)n2)c(-c2ccnc(C)n2)cn1` [Example 176, N-(4-((2-(2-fluoropropan-2-yl)-6-methylpyrimidin-4-yl)amino)-5-(2-methylpyrimidin-4-yl)pyridin-2-yl)acetamide], the IC50 on JH2 domain of human Tyk2 (setting [1]) and against Tyk2 (MSD) was at most 10 nM in each case.
In the case of `CCc1cc(Nc2cc(NC(C)=O)ncc2OCCN2CCOCC2)nc(C(C)(F)F)n1` [Example 70, N-(4-((2-(1,1-difluoroethyl)-6-ethylpyrimidin-4-yl)amino)-5-(2-morpholinoethoxy)pyridin-2-yl)acetamide], the IC50 at JH2 domain of human Tyk2 (setting [1]) and against Tyk2 (MSD) was at most 10 nM each time.
With `CC(=O)Nc1cc(Nc2cc(C)nc(C(C)(F)F)n2)c(-c2ccn(CC3CC3)n2)cn1` [Example 614, N-(5-(1-(cyclopropylmethyl)-1H-pyrazol-3-yl)-4-((2-(1,1-difluoroethyl)-6-methylpyrimidin-4-yl)amino)pyridin-2-yl)acetamide], the IC50 at JH2 domain of human Tyk2 (setting [2]) and on Tyk2 (MSD) was at most 10 nM in each case.
Consider `CC(=O)Nc1cc(Nc2ccnc(C(C)(F)F)n2)c(-c2ccc(COC(F)F)cn2)cn1` [Example 265, N-(4′-((2-(1,1-difluoroethyl)pyrimidin-4-yl)amino)-5-((difluoromethoxy)methyl)-[2,3′-bipyridin]-6′-yl)acetamide], for which the concentration for half-maximal inhibition (IC50) on JH2 domain of human Tyk2 (setting [1]) and on Tyk2 (MSD) was at most 10 nM each time.
In the case of `CCCn1ccc(-c2cnc(NC(C)=O)cc2Nc2ccnc(C(C)(F)F)n2)n1` [Example 705, N-(4-((2-(1,1-difluoroethyl)pyrimidin-4-yl)amino)-5-(1-propyl-1H-pyrazol-3-yl)pyridin-2-yl)acetamide], the IC50 at JH2 domain of human Tyk2 (setting [2]) and at Tyk2 (MSD) was at most 10 nM in each case.
Consider `COc1cnc(NC(C)=O)cc1Nc1cc(-c2cn[nH]c2)nc(C(C)(F)F)n1` [Example 416, N-(4-((2-(1,1-difluoroethyl)-6-(1H-pyrazol-4-yl)pyrimidin-4-yl)amino)-5-methoxypyridin-2-yl)acetamide], for which the IC50 at JH2 domain of human Tyk2 (setting [2]) was at most 10 nM; against Tyk2 (MSD) it was 100 to 1000 nM.
For the compound `COc1cc(-c2cnc(NC(C)=O)cc2Nc2ccnc(C(C)(F)F)c2)ncn1` [Example 217, N-(4-((2-(1,1-difluoroethyl)pyridin-4-yl)amino)-5-(6-methoxypyrimidin-4-yl)pyridin-2-yl)acetamide], the IC50 is 10 to 100 nM at JH2 domain of human Tyk2 (setting [1]) and at least 1000 nM at Tyk2 (MSD).
`CCc1cc(Nc2cc(NC(C)=O)ncc2F)nc(C(C)(F)F)n1` [Example 816, N-(4-((2-(1,1-difluoroethyl)-6-ethylpyrimidin-4-yl)amino)-5-fluoropyridin-2-yl)acetamide]: the results for the IC50 at JH2 domain of human Tyk2 (setting [3]) and at Tyk2 were at most 10 nM and 100 to 1000 nM, respectively.
Regarding `CCOCCn1ccc(-c2cnc(NC(C)=O)cc2Nc2cc(C)nc(C(C)(F)F)n2)n1` [Example 229, N-(4-((2-(1,1-difluoroethyl)-6-methylpyrimidin-4-yl)amino)-5-(1-(2-ethoxyethyl)-1H-pyrazol-3-yl)pyridin-2-yl)acetamide], the IC50 on JH2 domain of human Tyk2 (setting [1]) and against Tyk2 (MSD) was at most 10 nM each time.
Consider `CC(=O)Nc1cc(Nc2cc(C)nc(C(C)(F)F)n2)c(OCc2nccn2C)cn1` [Example 496, N-(4-((2-(1,1-difluoroethyl)-6-methylpyrimidin-4-yl)amino)-5-((1-methyl-1H-imidazol-2-yl)methoxy)pyridin-2-yl)acetamide], for which the 50% inhibitory concentration (IC50) at JH2 domain of human Tyk2 (setting [2]) is 10 to 100 nM; on Tyk2 (MSD), at least 1000 nM.
For the compound `COc1nccc(-c2cnc(NC(C)=O)cc2Nc2ccnc(C(C)(F)F)n2)n1` [Example 178, N-(4-((2-(1,1-difluoroethyl)pyrimidin-4-yl)amino)-5-(2-methoxypyrimidin-4-yl)pyridin-2-yl)acetamide], the half-maximal inhibitory concentration (IC50) at JH2 domain of human Tyk2 (setting [1]) and on Tyk2 (MSD) was at most 10 nM in each case.
In the case of `CCc1cc(Nc2cc(NC(C)=O)ncc2-c2ccc(N3CCOCC3)nn2)nc(C(C)(F)F)n1` [Example 863, N-(4-((2-(1,1-difluoroethyl)-6-ethylpyrimidin-4-yl)amino)-5-(6-morpholinopyridazin-3-yl)pyridin-2-yl)acetamide], the IC50 on JH2 domain of human Tyk2 (setting [3]) and against Tyk2 was at most 10 nM each time.
For the compound `CCc1cc(Nc2cc(NC(C)=O)ncc2-c2cnccn2)nc(C(C)(F)F)n1` [Example 823, N-(4-((2-(1,1-difluoroethyl)-6-ethylpyrimidin-4-yl)amino)-5-(pyrazin-2-yl)pyridin-2-yl)acetamide], the half-maximal inhibitory concentration (IC50) at JH2 domain of human Tyk2 (setting [3]) is at most 10 nM; on Tyk2, 10 to 100 nM.
On to `CC(=O)Nc1cc(Nc2cccc(C(C)(F)F)n2)c(-c2ccc(C#N)cn2)cn1` [Example 525, N-(5-cyanO4′-((6-(1,1-difluoroethyl)pyridin-2-yl)amino)-[2,3′-bipyridin]-6′-yl)acetamide], for which the values for the IC50 on JH2 domain of human Tyk2 (setting [2]) and on Tyk2 (MSD) were at most 10 nM and 10 to 100 nM, respectively.
Take `CC(=O)Nc1cc(Nc2cc(C)nc(C(C)(F)F)n2)c(-c2cc3n(n2)CCNC3)cn1` [Example 282, N-(4-((2-(1,1-difluoroethyl)-6-methylpyrimidin-4-yl)amino)-5-(4,5,6,7-tetrahydropyrazolo[1,5-a]pyrazin-2-yl)pyridin-2-yl)acetamide]: the half-inhibitory concentration (IC50) at JH2 domain of human Tyk2 (setting [1]) and at Tyk2 (MSD) was at most 10 nM throughout.
Regarding `CCc1cc(Nc2cc(NC(C)=O)ncc2-c2ccc3c(n2)OCC(C)(C)O3)nc(C(C)(F)F)n1` [Example 821, N-(4-((2-(1,1-difluoroethyl)-6-ethylpyrimidin-4-yl)amino)-5-(2,2-dimethyl-2,3-dihydro-[1,4]dioxino[2,3-b]pyridin-6-yl)pyridin-2-yl)acetamide], the IC50 on JH2 domain of human Tyk2 (setting [3]) and against Tyk2 was at most 10 nM in each case.
In the case of `CCc1cc(Nc2cc(NC(C)=O)ncc2-c2cnn(CCOC)n2)nc(C(C)(F)F)n1` [Example 261, N-(4-((2-(1,1-difluoroethyl)-6-ethylpyrimidin-4-yl)amino)-5-(2-(2-methoxyethyl)-2H-1,2,3-triazol-4-yl)pyridin-2-yl)acetamide], the 50% inhibitory concentration (IC50) on JH2 domain of human Tyk2 (setting [1]) and against Tyk2 (MSD) was at most 10 nM in each case.
As for `COc1cnc(NC(C)=O)cc1Nc1cc(-c2cnc(N3CCOCC3)nc2)nc(C(C)(F)F)n1` [Example 390, N-(4-((2-(1,1-difluoroethyl)-2′-morpholino-[4,5′-bipyrimidin]-6-yl)amino)-5-methoxypyridin-2-yl)acetamide], the IC50 at JH2 domain of human Tyk2 (setting [2]) was in the range of 10 to 100 nM; against Tyk2 (MSD), 100 to 1000 nM.
The like results for `CC(=O)Nc1cc(Nc2ccnc(C(C)(F)F)n2)c(-c2ncc(Cl)cn2)cn1` [Example 697, N-(5-(5-chloropyrimidin-2-yl)-4-((2-(1,1-difluoroethyl)pyrimidin-4-yl)amino)pyridin-2-yl)acetamide] were, in that order, at most 10 nM and 10 to 100 nM.

By IC50 is commonly meant the concentration that inhibits the measured activity by half. Read a low IC50 as higher potency.
